Patent US7842683B2, “Neurotherapeutic compositions and method” (Revaax Pharmaceuticals, LLC, priority 1999, dated 2010)

Columns and labels:
[1] = system: serotonin 5HT1A receptors; test: Receptor autoradiography, competition for I125 DPAT; format: binding; conditions: tissue sections of the hamster brain
Text: (§1) Vasopressin and serotonin are both critical neurotransmitters in the control of offensive aggression in male hamsters (Ferris et al., 1998). These two neurotransmitters also are implicated in the control of human aggression (Coccaro et al., 1998). Vasopressin facilitates aggressive behavior while serotonin inhibits aggression, in part, by inhibiting the activity of the vasopressin system. Blockade of vasopressin V1A receptors and stimulation of serotonin 5HT1A receptors in the anterior hypothalamus blocks offensive aggression (Ferris et al., 1999). […] To test this notion Mox was tested in a membrane binding assay for competition for the V1A receptor (Ferris et al., 1994) and in a receptor autoradiography assay for competition for the 5HT1A receptors (Ferris et al., 1999).

[2] = system: male hamsters; test: Radial arm maze (spatial memory); format: in vivo; conditions: 50 μg/kg
Text: The radial arm maze is one of the most commonly used methods for testing spatial learning and memory in rodents. Developed by Olton and co-workers (1976), it provides the simultaneous choice of several alternative paths for the test subject. Animals must learn which locations provide food (place learning) using visuospatial cues. Experimental Trials: The experimental trials consist of three phases (described below). The arms of the maze are numbered clock-wise from one to seven with arm number one being the arm furthest to the right side of the maze. All trials are […]. When not being tested, all hamsters have unlimited access to water. […] Trials within all the phases are conducted on successive days. Phase One: Phase One consists of five 15 min trials. Prior to the beginning of each of the five trials in Phase One, four sunflower seeds are placed at the ends of arms one, two, and three. Arms four, five, six, and seven remain empty. Phase Two: Phase Two of the experimental trials are identical to Phase One except that the seeds are placed in arms two, four, and seven. […] Coding of Behaviors: An arm entry was scored if all four paws of a hamster crossed an arm threshold. A full arm entry into an arm is scored if a hamster's snout touches the top of the block at the end of an arm or if their snout passes the block. […] In addition, the number of seeds pouched by the hamsters was scored. […]

[3] = system: vasopressin V1A receptor; test: Membrane binding assay, competition for I125 HO-LVA; conditions: 1 μM, hamster liver membrane preparation
Text: as §1

[4] = system: Male Wistar rats; test: Elevated plus-maze (anxiolytic activity); format: in vivo, rat
Text: (§2) The elevated plus-maze was developed for the detection of anxiolytic and anxiogenic drug effects in the rat (Pellow et al., 1985). The method has been validated behaviorally, physiologically, and pharmacologically. The plus-maze consists of two open arms and two enclosed arms. […] Conversely, anxiogenic compounds like yohimbin or amphetamines reduce open arm entries and time spent in the open arms.
Male Wistar rats weighing 250-300 g were group housed in a normal 12:12 light-dark cycle light on at 0800 hr and provide food and water ad libitum. The plus-maze consisted of two open arms, 50×10 cm, and two enclosed arms 50×10×40 cm with an open roof, arranged such that the two open arms were opposite to each other. The maze was elevated to a height of 50 cm.
Eight animals were tested in the plus-maze 90 min following IP injection with 50 μg/kg Mox and saline vehicle. The order of treatments was counter balanced with at least 48 hrs between injections. At the start of the experiment the animal was place in the center of the plus maze facing the closed arm. Over a five min observation period, animals were scored for the latency to enter the closed arm, time spent in the closed arm and the number of open arm entries following the first occupation of the closed arm (FIG. 7).
Because Mox and CDP have different bioavailability profiles, e.g. brain penetrance, their CNS activity could not be compared by giving systemic injections of equimolar concentrations of each drug. Instead it was necessary to give both drugs directly into the cerebroventricular system to by pass the blood brain barrier. Animals were anesthetized with sodium pentobarbital (50 mg/kg), implanted with microinjection guide cannulae aimed at the lateral ventricle and allowed to recover for two days before testing. To groups of six animals each were tested with Mox or CDP. Each animals received a injection of drug and 0.9% NaCl vehicle on two separate days. The order of injections was counterbalanced and separated by two days. Both Mox and CDP were prepared in 0.9% NaCl at a concentration of 1 mM. All injections were given in a volume of 2 ul over 10 secs in fully conscious, restrained animals. Sixty min later animals were tested in the plus-maze for a 3 min observation period and scored for behaviors as noted previously.
as §2, with “screening” for “the detection of”
Male Wistar rats weighing 250-300 g were group housed in a normal 12:12 light-dark cycle with light on at 0800 hr and provided food and water ad libitum. The plus-maze consisted of two open arms, 50 cm long, 10 cm wide, with walls 40 cm high made of clear Plexiglas. The two closed arms had the same dimensions but included a roof. The Plexiglas for the closed arms was painted black. Each pair of arms was arranged opposite to each other to form the plus-maze. The maze was elevated to a height of 50 cm. Eighteen animals were tested in the plus-maze 90 min following the IP injection of 1.0 μg/kg CLAV, 50 or vehicle control in a volume of ca. 0.3 ml. The order of treatments was counter balanced with at least 48 hrs between injections. At the start of the experiment, the animal was placed at the end of one of the open arms. Over a five min observation period, animals were scored for the latency to enter the closed arm, time spent in the closed arm and the number of open arm entries following the first occupation of the closed arm. The study produced tables of repeated measures. The data between treatments were compared with a two-way, repeated measures ANOVA followed by Bonferroni post hoc tests. […]

[5] = system: bacteria; conditions: cited from earlier work
[6] = cited from earlier work
[7] = daily IP for seven days: CLAV 100 ng/kg, CDP 10 mg/kg

With CO[C@@]1(NC(=O)C(C(=O)O)c2ccc(O)cc2)C(=O)N2C(C(=O)O)=C(CSc3nnnn3C)CO[C@@H]21 (stereo partly drawn) [Mox, 7-β-[2-carboxy-2-(4-hydroxyphenyl)acetamido]-7α-methoxy-3-[[(1-methyl-1H-tetrazol-5-yl)thio]methyl]-1-oxa-1-dethia-3-cephem-4-carboxylic acid] the “reduction of specific binding of I125 DPAT” value [1] was “ineffective”, the “number of seeds discovered after reversing the orientation of the maze” value [2] was “significantly increased” and the “displacement of I125 HO-LVA binding” value [3] was “did not significantly displace”. For the same compound, the “number of open arm entries” value ([4]; 50 μg/kg IP, 90 min) was “significantly elevated”, the “time spent in the closed arm” value ([4]; 50 μg/kg IP, 90 min) was “significantly reduced” and the “latency to enter the closed arm” value ([4]; 50 μg/kg IP, 90 min, five min observation) was “significantly increased”. For the same compound, the “time spent in the closed arm (dark)” value ([4]; 1 mM, 2 ul into lateral ventricle, 60 min) was “significantly (p<0.01) lower” and the “latency to enter the closed arm” value ([4]; 1 mM, 2 ul into lateral ventricle, 60 min, 3 min observation) was “significantly (p<0.05) delayed”.
For O=C(O)[C@H]1/C(=C/CO)O[C@@H]2CC(=O)N21 [CLAV, Clavulanic acid], the antibacterial activity [5] is given as “weak antibacterial activity”, the open arm entries ([4]; CLAV 1.0 μg/kg IP, 90 min) is given as “increased movement into the lighted open arms” and the “time spent in the open arm” value ([4]; CLAV 1.0 μg/kg IP, 90 min) is given as “significantly increased”. The “latency to enter the dark (time in starting open light position)” value ([4]; CLAV 1.0 μg/kg IP, 90 min, five min observation) was “longer”, the “latency to enter the dark closed arms” value [4, 7] was “significantly greater” and the “time spent exposed to light in the open arms” value [4, 7] was “significantly greater”. For the same compound, the CSF/plasma ratio ([6]; in vivo) was “around 0.25”, the elimination half-life ([6]; in vivo) was “under two” and the plasma half-life ([6]; in vivo) was “over 2 hrs”. For the same compound, the volume of distribution ([6]; in vivo) was “around 15 liters” and the bioavailability ([6]; oral) was 64 to 75%.
